The results in this text go back to ChEMBL document CHEMBL1212694, “Discovery and characterization of a marine bacterial SAM-dependent chlorinase” (Nat Chem Biol, 2008).

Assay [1] has as its system Salinispora tropica CNB-440. Briefly: Ratio of Kcat to Km for Salinispora tropica CNB-440 wild type recombinant SalL expressed in Escherichia coli BL21(DE3) for formation of S-Adenosyl methionine.
Assay [2] relates to Salinispora tropica CNB-440. The assay can be described thus: Activity at Salinispora tropica CNB-440 wild type recombinant SalL expressed in Escherichia coli BL21(DE3) assessed as formation of S-Adenosyl methionine after 30 mins by HPLC analysis.
The subject of assay [3] is Salinispora tropica CNB-440. The assay can be described thus: Effect on Salinispora tropica CNB-440 wild type recombinant SalL expressed in Escherichia coli BL21(DE3)-mediated S-Adenosyl methionine formation after 30 mins by HPLC analysis.
In assay [4] the test system is Salinispora tropica CNB-440. The assay can be described thus: Activity at Salinispora tropica CNB-440 wild type recombinant SalL expressed in Escherichia coli BL21(DE3) after 30 mins by HPLC analysis.
Assay [5] relates to Salinispora tropica CNB-440. The assay can be described thus: Ratio of Kcat to Km for Salinispora tropica CNB-440 wild type recombinant SalL expressed in Escherichia coli BL21(DE3).
The subject of assay [6] is T1, Adenosyl-chloride synthase (Salinispora tropica (strain ATCC BAA-916 / DSM 44818 / CNB-440)), A4X3Q0 [W129F].
T1 sequence (whole entry): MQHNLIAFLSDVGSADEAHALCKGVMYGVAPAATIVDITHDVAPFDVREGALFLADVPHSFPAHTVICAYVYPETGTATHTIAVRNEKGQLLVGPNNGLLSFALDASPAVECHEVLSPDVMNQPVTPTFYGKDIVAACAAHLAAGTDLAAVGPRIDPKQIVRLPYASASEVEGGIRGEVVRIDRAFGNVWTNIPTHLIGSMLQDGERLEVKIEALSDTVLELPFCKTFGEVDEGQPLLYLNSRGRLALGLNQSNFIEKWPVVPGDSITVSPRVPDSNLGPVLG
The assay can be described thus: Activity at Salinispora tropica CNB-440 recombinant SalL W129F mutant expressed in Escherichia coli BL21(DE3) after 30 mins by HPLC analysis relative to S-Adenosyl methionine.

For assay [7], the system named is T2, Adenosyl-chloride synthase (Salinispora tropica (strain ATCC BAA-916 / DSM 44818 / CNB-440)), A4X3Q0 [Y70T].
T2 sequence (whole entry): T1 sequence (whole entry) with Y70T, F129W
The assay can be described thus: Activity at Salinispora tropica CNB-440 recombinant SalL Y70T mutant expressed in Escherichia coli BL21(DE3) after 30 mins by HPLC analysis relative to S-Adenosyl methionine.

In assay [8] the test system is Salinispora tropica CNB-440. Briefly: Activity at Salinispora tropica CNB-440 wild type recombinant SalL expressed in Escherichia coli BL21(DE3) after 30 mins by HPLC analysis relative to S-Adenosyl methionine.
The test system of assay [9] is T3, Adenosyl-chloride synthase (Salinispora tropica (strain ATCC BAA-916 / DSM 44818 / CNB-440)), A4X3Q0 [Y70T,G131S].
T3 sequence (whole entry): T1 sequence (whole entry) with Y70T, F129W, G131S
Briefly: Activity at Salinispora tropica CNB-440 recombinant SalL Y70T/G131S mutant expressed in Escherichia coli BL21(DE3) after 30 mins by HPLC analysis relative to S-Adenosyl methionine.

Residue numbers refer to the chain shown, from its start. Activity calls are given as the source filed them. The rule behind the calls is not given here.

One may read the kcat/Km as the turnover number divided by the Michaelis constant. The term Km denotes the substrate concentration at which the rate is half of its maximum. What is called kcat is the maximal rate divided by the concentration of active sites. For `Nc1ncnc2c1ncn2[C@@H]1O[C@H](CBr)[C@@H](O)[C@H]1O`, the kcat/Km result in assay [1] was “Active”. Moreover, in [2], the result was Active. In assay [3], the Michaelis-Menten constant (Km) result was “Active” and the kcat result was “Active”.
In the case of `CSCC[C@H](N)C(=O)O`, the catalytic efficiency (kcat/Km) in assay [1] turned out to be 76.7 M⁻¹ s⁻¹. In addition, the Activity in assay [2] is 1300%. In assay [3], the Km worked out at 2600 µM and the kcat came out at 0.2 s⁻¹.
For the compound `C[S+](CC[C@H](N)C(=O)[O-])C[C@H]1O[C@@H](n2cnc3c(N)ncnc32)[C@H](O)[C@@H]1O` (some centres not stated), in assay [4], the Michaelis-Menten constant (Km) came to 1 µM and the kcat worked out at 0.015 s⁻¹. The kcat/Km in assay [5] was 15000 M⁻¹ s⁻¹.
As for `Nc1ncnc2c1ncn2[C@@H]1O[C@H](CI)[C@@H](O)[C@H]1O`, the Activity in [6] came to 12%; in assay [7], 1.4%; in assay [2] it was 5560%; in assay [8] it was 100%; in assay [9], 0.8%. Moreover, the specificity constant (kcat/Km) in [1] is 181000 M⁻¹ s⁻¹. Also, the Michaelis-Menten constant (Km) in assay [3] turned out to be 4.6 µM. In assay [3], the catalytic constant (kcat) is 0.833 s⁻¹.
Take `Nc1ncnc2c1ncn2[C@@H]1O[C@H](CCl)[C@@H](O)[C@H]1O`: the Activity is 11% in assay [6]; 1.1% in assay [7]; 1300% in assay [2]; 100% in assay [8]; 2.5% in [9]. For the same compound, the kcat/Km in [1] was 1e+06 M⁻¹ s⁻¹. In addition, the Michaelis constant (Km) in assay [3] was found to be 0.2 µM. In addition, in [3], the catalytic constant (kcat) is 0.2 s⁻¹.
